This passage reports ED50 results from patent publication US5332736A, “Anti-convulsant aroyl aminoacylpyrroles” (Ortho Pharmaceutical Corporation, priority 1993, dated 1994).

In this assay the test system is toxic extensor seizure. As to the kind of experiment: maximal electroshock test (MES), mouse; block of the toxic extensor seizure (Swinyard 1952 method). Type of assay: in vivo. The conditions noted are these: ip. The source says:
The compound of formula (I) are useful as anticonvulsant agents. The anticonvulsant activity of the subject compounds was determine using a standard "maximal electroshock test" (MES). In this test, activity is indicated by a block of the toxic extensor seizure, as described by Swinyard et al in J. Pharmacol,. Exptl. Therap. 106, 319 (1952). A more recent description of current anticonvulsant drug screening is given in Swinyard et al., in Epilepsia 19, 409 (1978).
In general terms: The maximal electroshock test induces tonic seizures with an electrical stimulus.
`Cn1cc(C(=O)CN2CCCCC2)cc1C(=O)c1ccc(Cl)cc1` [Example 9-1]: the 50% effect level (ED50) was put at a dose of 24.4 mg/kg.

`Cc1c(C(=O)CN2CCOCC2)c(C)n(C)c1C(=O)c1ccc(Cl)cc1` [Example 9-2]: the 50% effect level (ED50) was put at a dose of 87.6 mg/kg.

Regarding `CCN(CC)CC(=O)c1cc(C(=O)c2ccc(Cl)cc2)n(C)c1` [Example 9-4], it took a dose of 14.4 mg/kg to reach the 50% effect level (ED50).

For `Cc1c(C(=O)CN2CCCC2)c(C)n(C)c1C(=O)c1ccc(Cl)cc1` [Example 9-5], the ED50 (commonly the midpoint of the dose-response relation) is 15.2 mg/kg.

In the case of `Cn1cc(C(=O)CN2CCCCC2)cc1C(=O)c1ccccc1Cl` [Example 9-10], the 50% effective dose (ED50) is 5.38 mg/kg.

On to `Cn1cc(C(=O)CN2CCCCCC2)cc1C(=O)c1ccc(Cl)cc1` [Example 9-11], for which the ED50 turned out to be 27.5 mg/kg.

Regarding `Cn1cc(C(=O)CN2CCCC2)cc1C(=O)c1cccc(Cl)c1` [Example 9-24], the median effective dose (ED50) amounted to 16.5 mg/kg.

The compound `Cn1cc(C(=O)CN2CCOCC2)cc1C(=O)c1cccc(Cl)c1` [Example 9-25] had a median effective dose (ED50) of 37.4 mg/kg.

`O=C(CN1CCOCC1)c1c[nH]c(C(=O)c2ccc(Cl)cc2)c1` [Example 9-27]: the ED50 was 86.2 mg/kg.

Regarding `CCN(CC)CC(=O)c1cc(C(=O)c2ccc(OC)cc2)n(C)c1` [Example 9-29], the ED50 turned out to be 33 mg/kg.

Turning to `Cn1cc(C(=O)CN2CCCC2)cc1C(=O)c1ccc(Cl)cc1` [Example 9-30], the ED50 came to 49.1 mg/kg.

`CCN(CC)CC(=O)c1c(C)c(C(=O)c2ccc(Cl)cc2)n(C)c1C` [Example 9-32] came in with an ED50 of 10.3 mg/kg.

Take `CCN(CC)CC(=O)c1c(C)c(C(=O)c2ccc(Cl)cc2Cl)n(C)c1C` [Example 9-34]: the 50% effective dose (ED50) was 14.9 mg/kg.
